Like-named read-outs stand apart in the source and are kept apart here.
Legend:
[1] = Serum pharmacokinetics in rats after consumption of 500 mg/kg BW of BF extracts; format: in vivo, SD rats; details: for Detection in rat plasma/blood after administration of BF extracts: 500 mg/kg BW BF extracts
Procedure: (§1) A total of 24 male SD rats aged between 6 and 8 weeks (200–220 g) were acquired from the Laboratory Animal Center of Jiangxi University of Chinese Medicine (Nanchang, China). Prior to experimentation, the rats were acclimated for 7 days in an air-conditioned room maintained at 24 ± 1 °C with a 12 h light/dark cycle. During this period, they had free access to food and water. After adaptive feeding, rats were randomly divided into three groups (n = 8), including a negative control, serum collection, and urine collection groups. […] To establish baseline data, blood samples were collected from all rats before administering the BF extracts. Blood was collected from the orbits at 15 min, 30 min, 1 h, 1.5 h, 2 h, 4 h, 6 h, 8 h, and 10 h after drug administration. Urine was collected at 6, 12, and 24 h after administration. Pretreatment of serum and urine samples was according to our previous study. The animal experiments were approved by the Animal Ethics Committee of Jiangxi University of Chinese Medicine (TEMPOR20230112).
The quantification of substances identified was performed using an AB TRIPLE QUAD 4500 HPLC-MS2 (AB SCIEX, Framingham, MA, USA) system equipped with a C18 column (2.1 × 100 mm, 1.7 μm particle size; ACQUITY) at room temperature (25 °C). The mobile phase consisted of A (water containing 0.2% formic acid, v/v) and B (acetonitrile containing 0.2% formic acid, v/v) and the following binary program was used: 0–3 min, 5% B; 3–4 min, 95% B; 4–4.1 min, 95–5% B; 4.1–6.0 min, 5% B. The flow rate was 0.3 mL/min, and the injection volume was 10 μL. For sensitive detection and quantification, the analysis employed electrospray ionization (ESI) followed by multiple reaction monitoring (MRM) to selectively monitor the fragmentation patterns of the target analytes. Data acquisition and processing were performed with Qualbrowser.
Blood concentration/time data analysis was performed by non-compartment model analysis and processed using Peak View®1.6 (AB SCIEX), according to a previous publication. All data are presented as mean ± standard deviation (SD). The maximum plasma concentration (Cmax), and the time to reach the maximum plasma concentration (tmax) was calculated from the observed values.

[2] = Identification of prototypes and metabolites in rat serum and urine by UPLC-LTQ-Orbitrap-MS2 after BF extracts; format: in vivo, SD rats; details: for Location: rat serum or urine after 500 mg/kg BW BF extracts, UPLC-LTQ-Orbitrap-MS2; for Detected in serum and/or urine: rat, after gavage of BF extracts
Source text: as §1, with “Prior to experimentation, the rats were acclimated for 7 days in an air-conditioned room maintained at 24 ± 1 °C with a 12 h light/dark cycle.” left out, “Blood was collected from the orbits at 15 min, 30 min, 1 h, 1.5 h, 2 h, 4 h, 6 h, 8 h, and 10 h after drug administration. Urine was collected at 6, 12, and 24 h after administration.” left out
The metabolic profile from blood and urine samples were conducted by UPLC-LTQ-Orbitrap-MS2 (Thermo Scientific, Bremen, Germany) according to previously published methods. The samples were prepared by SPE, centrifuged at 4 °C and 2000 rpm, and stored at −80 °C. […] The LTQ-Orbitrap-MS2 was operated in negative mode with a scan range of 50–2000 m/z. A data-dependent scan with CID was performed for fragmentation. The collision energy was set at 45 eV. Data acquisition and processing were performed with Xcalibur v.2.0 software (Thermo Fisher, San Jose, CA, USA) and Qualbrowser.

[3] = design: method as in PMID 16848510; details: cited from earlier work
[4] = male, SD, rat serum, oral 500 mg/kg BW BF extracts, n = 8
[5] = rat serum, oral 500 mg/kg BW BF extracts, n = 8

O=C(O)c1ccc(O)cc1 [4-Hydroxybenzoic acid, 4-hydroxybenzoic acid]
AUC(0-t) ([1]; male, SD, rat serum, oral 500 mg/kg BW BF extracts, 0 to 10 h, n = 8, read-out: AUC0-10): 0.0313 ± 0.00191 µM·h | Cmax [1, 4]: 6.98 ± 0.805 nM | half-life [1, 4]: 6.48 ± 5.16 h | tmax ([1]; male, SD, rat serum, oral 500 mg/kg BW BF extracts, n = 8, read-out: tmax): 1 h | Detection in rat plasma/blood after administration of BF extracts [1]: detected

OC[C@H]1O[C@@H](Oc2cc3c(O)cc(O)cc3[o+]c2-c2cc(O)c(O)c(O)c2)[C@H](O)[C@@H](O)[C@@H]1O [Delphinidin 3-glucoside, delphinidin 3-glucoside]
AUC0-10 ([1]; rat serum, oral 500 mg/kg BW BF extracts, 0 to 10 h, n = 8): 0.054654 ± 0.009089 µM·h | Cmax [1, 5]: 51.6 ± 3.2 nM | t1/2 [1, 5]: 1.639 ± 0.271 h | tmax [1, 5]: 0.5 h | Detection in rat plasma/blood after administration of BF extracts [1]: detected | Location [2]: S, U | Detected in serum and/or urine [2]: both serum and urine

O=C(O)c1ccc(O)c(OC2OC(C(=O)O)C(O)C(O)C2O)c1 (stereo not shown) [M11, PCA-3-glucuronide]
Location [2]: S

COc1cc(C(=O)O)ccc1O[C@@H]1O[C@H](C(=O)O)[C@@H](O)[C@H](O)[C@H]1O [M12, VA-4-glucuronide]
Location [2]: S

O=C(O)c1ccc(O[C@@H]2O[C@H](C(=O)O)[C@@H](O)[C@H](O)[C@H]2O)c(O)c1 [M13, PCA-4-glucuronide]
Location [2]: S, U

Oc1cc(O)c2cc(O)c(-c3cc(O)c(O)c(O)c3)[o+]c2c1 [M16, delphinidin]
Location [2]: S, U

C[C@@H]1O[C@@H](OC[C@H]2O[C@@H](Oc3c(-c4ccc(O)c(O)c4)oc4cc(O)cc(O)c4c3=O)[C@H](O)[C@@H](O)[C@@H]2O)[C@H](O)[C@H](O)[C@H]1O [rutin]
Detected in serum and/or urine [2]: exclusively in urine

O=C([O-])CC(=O)OC[C@H]1O[C@@H](Oc2cc3c(O)cc(O)cc3[o+]c2-c2cc(O[C@@H]3O[C@H](COC(=O)/C=C/c4ccc(O[C@@H]5O[C@H](COC(=O)/C=C/c6ccc(O)cc6)[C@@H](O)[C@H](O)[C@H]5O)cc4)[C@@H](O)[C@H](O)[C@H]3O)c(O)c(O[C@@H]3O[C@H](COC(=O)/C=C/c4ccc(O[C@@H]5O[C@H](COC(=O)/C=C/c6ccc(O)cc6)[C@@H](O)[C@H](O)[C@H]5O)cc4)[C@@H](O)[C@H](O)[C@H]3O)c2)[C@H](O)[C@@H](O)[C@@H]1O [ternatin D1]
Detection in rat plasma/blood after administration of BF extracts [1]: not detected

benzoic acid-4-glucuronide [M19]
Location [2]: S, U

cyanidin-3-(p-coumaroyl) glucose
Location [2]: S | Detected in serum and/or urine [2]: serum

delphinidin-3-p-coumaroyl-rutinoside-5-glucoside [nasunin]
Time of rapid peak in rat plasma (postprandial) [3]: 15 min
